Measured values from patent US8895738B2, “Mesoionic pyrido [1, 2-A] pyrimidine pesticides” (E I du Pont de Nemours and Company, priority 2010, dated 2014).
Where a name gives a salt, the structure may show the parent alone.

Tested on: Rice plants (indica cultivar)
Test: Test M: vigor of direct seeded rice crop outdoors, An Giang, Vietnam
Format: in vivo
Conditions: all application rates (6.25, 12.5, 25 or 50 g a.i./ha) with 30 g a.i./ha indoxacarb and 20 g a.i./ha chlorantraniliprole; 18 days after application; Nilaparvata lugens level very low
Description: To evaluate the effect of application of a compound of the invention on the vigor of rice crops grown under outdoor conditions, Tests 1 through 0 were conducted. “a.i.” refers to the amount of active ingredient applied.
Rice plants (indica cultivar) were direct seeded into flooded 6 m×5 m test plots of clay loam soil in An Giang Province of Vietnam shortly before the monsoon, and grown using local agronomic practices. After 42 days, at the beginning of the wet season, aqueous mixtures containing 30 g a.i./ha of indoxacarb in form of STEWARD® Insecticide, 20 g a.i./ha of chlorantraniliprole, and 6.25, 12.5, 25 or 50 g a.i./ha of Compound 3 were applied to the foliage of the rice plants at in a spray volume of 400 L/ha using a motorized sprayer. Plots of control rice plants were sprayed with an aqueous mixture containing 30 g a.i./ha of indoxacarb in form of STEWARD® Insecticide and 20 g a.i./ha of chlorantraniliprole (i.e. no Compound 3). Each treatment and control was replicated three times, and the plots were arranged in a randomized complete block design. At the time of application of Compound 3, the pest level of rice brown planthopper (Nilaparvata lugens) was very low.

O=c1c(-c2cccc(C(F)(F)F)c2)c([O-])[n+](Cc2cncnc2)c2ccccn12 [Compound 3, 2-hydroxy-4-oxo-1-(5-pyrimidinylmethyl)-3-[3-(trifluoromethyl)phenyl]-4H-pyrido[1,2-a]pyrimidinium inner salt]
crop vigor (visual rating, 0 to 200% scale, control = 100%): 100%
